Among the test systems are DU-145 prostate; M14 melanoma; MOLT-4 leukemia; NCI-H23 lung; NCI/ADR-RES ovarian; OVCAR-4 ovarian; SK-MEL-5 melanoma; T-47D breast; U251 CNS; UO-31 renal.
What all share (test): growth of human tumour cells (NCI), 48 h

SMILES strings stand for the structures.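 Following 48 hours of exposure in 96-well plates, responses at five concentrations were used to interpolate endpoints linearly. GI50: concentration for 50% inhibition of growth. At the TGI there is no net growth.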

As for `CCOC(=O)/C=C/CC(C)(C)CCOC(C)=O`, the TGI in the assay with DU-145 prostate, with M14 melanoma, with MOLT-4 leukemia, with NCI-H23 lung, in the assay on NCI/ADR-RES ovarian and in the assay on OVCAR-4 ovarian was > 10 µM each time. Moreover, the TGI with SK-MEL-5 melanoma, with T-47D breast, in the assay on U251 CNS and with UO-31 renal was > 10 µM throughout.
For `O=C(Nc1ccc(F)cc1)Nc1ccc(Cl)c([N+](=O)[O-])c1`, the GI50 was 4.44 µM with DU-145 prostate; 3.14 µM with M14 melanoma; 3.13 µM in the assay with MOLT-4 leukemia; 2.62 µM in the assay with NCI-H23 lung; 2.6 µM with NCI/ADR-RES ovarian; 2.78 µM in the assay with OVCAR-4 ovarian. Moreover, the GI50 in the assay with SK-MEL-5 melanoma was 1.76 µM; in the assay with T-47D breast it was 2.18 µM; in the assay on U251 CNS, 3.19 µM; with UO-31 renal, 2.69 µM. The TGI with DU-145 prostate stood at 21.2 µM; with M14 melanoma, 12.3 µM; with MOLT-4 leukemia, 92.9 µM; in the assay with NCI-H23 lung, 10.7 µM; in the assay on NCI/ADR-RES ovarian it was 10.3 µM; with OVCAR-4 ovarian it was 14 µM. Also, the TGI was found to be 3.22 µM in the assay with SK-MEL-5 melanoma, 9.67 µM in the assay with T-47D breast, 12.5 µM with U251 CNS and 10.6 µM with UO-31 renal.
Consider `CC1CCc2nc[nH]c(=O)c21` (configuration not stated), for which the GI50 with DU-145 prostate, in the assay with M14 melanoma, with MOLT-4 leukemia, in the assay on NCI-H23 lung, in the assay on NCI/ADR-RES ovarian and in the assay with OVCAR-4 ovarian was > 100 µM each time. Also, the GI50 in the assay on SK-MEL-5 melanoma, with T-47D breast and in the assay with UO-31 renal was > 100 µM each time. Further, the TGI with DU-145 prostate, in the assay on M14 melanoma, in the assay with MOLT-4 leukemia, with NCI-H23 lung, in the assay with NCI/ADR-RES ovarian and with OVCAR-4 ovarian was > 100 µM in each case. In addition, the TGI with SK-MEL-5 melanoma, in the assay with T-47D breast and in the assay with UO-31 renal was > 100 µM throughout.
Consider `COC1/C=C/OC2(C)Oc3c(C)c(O)c4c(O)c(c(/C=N/Nc5ccc([N+](=O)[O-])cc5[N+](=O)[O-])c(O)c4c3C2=O)NC(=O)C(C)=C/C=C/C(C)C(O)C(C)C(O)C(C)C(OC(C)=O)C1C` (configuration not stated), for which the GI50 in the assay on DU-145 prostate is 2.55 µM; in the assay with M14 melanoma it was 1.61 µM; in the assay with NCI-H23 lung it was 1.7 µM; with NCI/ADR-RES ovarian, 22.2 µM; with OVCAR-4 ovarian, 2.9 µM; with SK-MEL-5 melanoma it was 1.29 µM. The GI50 in the assay with T-47D breast was 2.07 µM; in the assay with U251 CNS, 1.3 µM; with UO-31 renal it was 8.71 µM. The TGI in the assay on DU-145 prostate is 9.32 µM; in the assay on M14 melanoma, 5.86 µM; with NCI-H23 lung it was 7.02 µM; with NCI/ADR-RES ovarian, > 50 µM; in the assay on OVCAR-4 ovarian, > 50 µM; with SK-MEL-5 melanoma, 3.75 µM. Besides, the results for the TGI with T-47D breast, in the assay with U251 CNS and in the assay on UO-31 renal were > 50 µM, 3.55 µM and 23.6 µM, respectively.
As for `CC(C)=CCC\C(C)=C/C=C/C(C)=C\C=C\C(C)=C/C=C/C=C(C)\C=C\C=C(C)/C=C/C=C(/C)CCC=C(C)C`, the TGI with DU-145 prostate, with M14 melanoma, in the assay with MOLT-4 leukemia, in the assay on NCI/ADR-RES ovarian, with OVCAR-4 ovarian and in the assay with SK-MEL-5 melanoma was > 100 µM each time. The TGI in the assay with UO-31 renal is > 100 µM.
In the case of `C=C(C)C(OC)C(O)CC1(C)CC(O)CC(C)(C2CCC3OC(C4(C)CCC(Br)C(C)(C)O4)CCC3(C)O2)O1` (configuration not stated), the GI50 was 17.3 µM in the assay on DU-145 prostate; 17.4 µM with M14 melanoma; 13.5 µM in the assay on MOLT-4 leukemia; 16 µM in the assay with NCI-H23 lung; 18.3 µM in the assay on NCI/ADR-RES ovarian; 23.1 µM in the assay on OVCAR-4 ovarian. For the same compound, the GI50 in the assay with SK-MEL-5 melanoma was 13.2 µM; in the assay with T-47D breast it was 2.27 µM; with U251 CNS, 25.5 µM; with UO-31 renal, 15.7 µM. Further, the TGI in the assay on DU-145 prostate stood at 32 µM; in the assay on M14 melanoma, 32.7 µM; with MOLT-4 leukemia, 29.4 µM; in the assay with NCI-H23 lung, 34.6 µM; in the assay on NCI/ADR-RES ovarian, 39.6 µM; in the assay with OVCAR-4 ovarian, 44.2 µM. Further, the TGI is 28.4 µM in the assay on SK-MEL-5 melanoma, 22.2 µM in the assay with T-47D breast, > 61.9 µM with U251 CNS and 34.4 µM in the assay on UO-31 renal.
Consider `COc1cc2c(cc1OCCCCN1CCN(CC(=O)Nc3ccc(Cl)cc3C(=O)c3ccccc3Cl)CC1)N=CC1CCCN1C2=O` (configuration not stated), for which the GI50 in the assay on DU-145 prostate was 0.277 µM; in the assay with MOLT-4 leukemia, 0.209 µM; in the assay with NCI-H23 lung, 0.206 µM; in the assay with OVCAR-4 ovarian, 0.262 µM; in the assay with SK-MEL-5 melanoma, 0.183 µM; in the assay on U251 CNS, 0.327 µM. In addition, in the assay on UO-31 renal, the GI50 is 0.267 µM. The TGI was determined as 0.791 µM in the assay on DU-145 prostate; 0.512 µM with MOLT-4 leukemia; 0.446 µM in the assay on NCI-H23 lung; 0.962 µM in the assay with OVCAR-4 ovarian; 0.333 µM with SK-MEL-5 melanoma; 1.06 µM with U251 CNS. This compound also had a TGI with UO-31 renal of 0.817 µM.
As to `C=CCO[C@H]1CO[C@H]2[C@@H]1OC[C@@H]2Oc1ccc(Nc2ccnc(Nc3ccc(O[C@H]4CO[C@H]5[C@@H]4OC[C@@H]5OCC=C)c(Cl)c3)n2)cc1Cl`, the GI50 is 1.69 µM in the assay with DU-145 prostate; 1.77 µM in the assay on M14 melanoma; 1.79 µM with NCI-H23 lung; 1.78 µM in the assay with NCI/ADR-RES ovarian; 1.57 µM in the assay with OVCAR-4 ovarian; 1.46 µM in the assay on SK-MEL-5 melanoma. For the same compound, the GI50 in the assay with U251 CNS is 1.85 µM; in the assay on UO-31 renal it was 1.58 µM. In addition, the TGI in the assay with DU-145 prostate is 3.13 µM; with M14 melanoma, 3.4 µM; in the assay on NCI-H23 lung it was 3.71 µM; in the assay with NCI/ADR-RES ovarian, 3.85 µM; with OVCAR-4 ovarian it was 2.93 µM; in the assay on SK-MEL-5 melanoma, 2.8 µM. Besides, the TGI in the assay on U251 CNS was found to be 3.83 µM; with UO-31 renal, 2.93 µM.
As to `Cc1ccc(Cl)c2c(N=Nc3ccccc3[N+](=O)[O-])c(O)[nH]c12`, the TGI in the assay with DU-145 prostate, in the assay on M14 melanoma, in the assay with MOLT-4 leukemia, in the assay with NCI-H23 lung, with NCI/ADR-RES ovarian and in the assay on OVCAR-4 ovarian was > 100 µM throughout. For the same compound, the TGI in the assay with T-47D breast, in the assay on U251 CNS and in the assay on UO-31 renal was > 100 µM each time.

For the origin of these results see PubChem BioAssay (NCI).
